Measured values: patent US20240116985A1, “STAPLED PEPTIDES AND METHODS THEREOF” (priority 2020, published 2024)
Converted amounts (≈) assume the structure as drawn. Read-outs that look alike come from different tables or passages of the source.

Tests used:
CHI Log D procedure = assay type: physicochemical; details: pH 7.4
Solubility in PBS = assay type: physicochemical
Outline: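 HPLC quantitation of peptide remaining in the PBS supernatant after ultracentrifugation, referenced to a 50 μM solution in DMSO.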

[1] = molecular target: T1, full-length beta-Catenin (Uniprot ID P35222) (Homo sapiens, UniProt P35222); assay: Fluorescence polarization IC50 (beta-catenin / 5FAM-TCF4 10-53 competition); assay type: binding
T1 construct: 10 nM full-length beta-Catenin (Uniprot ID P35222)
T1 sequence (P35222 1-781): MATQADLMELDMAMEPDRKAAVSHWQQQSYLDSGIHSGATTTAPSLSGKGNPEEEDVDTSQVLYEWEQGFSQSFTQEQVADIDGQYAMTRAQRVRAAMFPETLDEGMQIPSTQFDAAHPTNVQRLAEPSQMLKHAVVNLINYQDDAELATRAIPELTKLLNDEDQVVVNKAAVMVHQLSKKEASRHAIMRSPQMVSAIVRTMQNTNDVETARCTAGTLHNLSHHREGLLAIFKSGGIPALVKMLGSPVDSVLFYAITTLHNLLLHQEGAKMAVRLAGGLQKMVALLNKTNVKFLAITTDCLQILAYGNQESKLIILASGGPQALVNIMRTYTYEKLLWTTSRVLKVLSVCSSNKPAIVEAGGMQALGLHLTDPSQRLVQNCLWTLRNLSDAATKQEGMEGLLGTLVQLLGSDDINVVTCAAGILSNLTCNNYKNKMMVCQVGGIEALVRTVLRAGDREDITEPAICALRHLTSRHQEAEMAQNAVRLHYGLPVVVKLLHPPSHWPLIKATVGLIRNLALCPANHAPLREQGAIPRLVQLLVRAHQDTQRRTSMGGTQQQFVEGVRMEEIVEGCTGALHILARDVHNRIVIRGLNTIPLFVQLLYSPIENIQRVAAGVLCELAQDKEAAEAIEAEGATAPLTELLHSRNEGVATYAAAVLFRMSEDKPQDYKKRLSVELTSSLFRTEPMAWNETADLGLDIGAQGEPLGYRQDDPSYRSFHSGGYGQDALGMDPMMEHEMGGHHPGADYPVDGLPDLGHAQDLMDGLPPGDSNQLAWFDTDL

[2] = fluorescence polarization, read-out: beta-Catenin FP IC50
[3] = fluorescence polarization, beta-catenin, read-out: FP EC50

SMILES	CHI Log D (CHI Log D procedure)	Solubility (Solubility in PBS) [µM]	IC50 [1, 2] [nM]	IC50 ([1]; read-out: FP EC50) [nM]	IC50 ([1]; read-out: beta-Catenin FP IC50) [nM]	IC50 [1, 3] [nM]	IC50 ([1]; Table E2-1, read-out: beta-Catenin FP IC50) [nM]	IC50 ([1]; read-out: FP EC50, fluorescence polarization, beta-catenin) [nM]
CC[C@@H](C)[C@@H]1NC(=O)[C@H](CC(=O)O)NC(=O)[C@]2(CC=CCCCC3(CCCC=CCCCCCC[C@@](C)(C(=O)N[C@@H](Cc4ccccc4)C(=O)N[C@@H](Cc4csc5ccccc45)C(=O)N[C@@H](CCC(N)=O)C(N)=O)NC(=O)[C@H](CC(N)=O)NC(=O)[C@H](Cc4ccccc4)NC(=O)[C@H](C)NC(=O)[C@H](C)NC(=O)[C@H](CCC(=O)O)NC(=O)[C@H](CC(=O)O)NC3=O)NC1=O)CCCN2C(C)=O (stereo partly drawn) [I-476, Ac-PL3-Asp-aIle-B5-Asp-Glu-Ala-Ala-Phe-Asn-S8-Phe-BztA-Gln-NH2]	2.317	49 (≈ 91.6 µg/mL)	48	48				
CC(=O)N1CCC[C@]12CC=CCCCC1(CCCC=CCCCOC(=O)N3CC[C@@](C(=O)N[C@@H](Cc4ccsc4)C(=O)N[C@@H](Cc4csc5ccccc45)C(=O)N[C@@H](CCC(N)=O)C(N)=O)(C3)NC(=O)[C@H](CCC(N)=O)NC(=O)[C@H](Cc3ccccc3)NC(=O)[C@H](C)NC(=O)[C@H](C)NC(=O)[C@H](CC(=O)O)NC(=O)[C@H](CC(=O)O)NC1=O)NC(=O)[C@H](CC(C)(C)C)NC(=O)[C@H](CC(=O)O)NC2=O (stereo partly drawn) [I-764, Ac-PL3-Asp-Npg-B5-Asp-Asp-Ala-Ala-Phe-Gln-PyrS2-3Thi-BztA-Gln-NH2]	2.212	45 (≈ 86.9 µg/mL)		14	14			
CC(=O)N1CCC[C@]12CC=CCCCC1(CCCC=CCCCCCC[C@@](C)(C(=O)N[C@@H](Cc3ccsc3)C(=O)N[C@@H](Cc3csc4ccccc34)C(N)=O)NC(=O)[C@H](CC(N)=O)NC(=O)[C@H](Cc3ccccc3)NC(=O)[C@H](C)NC(=O)[C@H](C)NC(=O)[C@H](CCC(=O)O)NC(=O)[C@H](CC(=O)O)NC1=O)NC(=O)[C@H](CC(C)C)NC(=O)[C@H](CC(=O)O)NC2=O (stereo partly drawn) [I-716, Ac-PL3-Asp-Leu-B5-Asp-Glu-Ala-Ala-Phe-Asn-S8-3Thi-BztA-NH2]	2.622	50 (≈ 87.4 µg/mL)	91	91				
C[C@@H]1NC(=O)[C@H](C)NC(=O)[C@H](CC(=O)O)NC(=O)[C@H](CC(=O)O)NC(=O)C2(CCCC=CCCCCCC[C@@](C)(C(=O)N[C@@H](Cc3ccsc3)C(=O)N[C@@H](Cc3csc4ccccc34)C(=O)N[C@@H](CCC(N)=O)C(N)=O)NC(=O)[C@H](CC(N)=O)NC(=O)[C@H](Cc3ccccc3)NC1=O)CCCC=CC[C@]1(CCCN1C(=O)CN=[N+]=[N-])C(=O)N[C@@H](CC(=O)O)C(=O)N[C@@H](CC(C)(C)C)C(=O)N2 (stereo partly drawn) [I-1052, AzAc-PL3-Asp-Npg-B5-Asp-Asp-Ala-Ala-Phe-Asn-S8-3Thi-BztA-Gln-NH2]	2.334	33 (≈ 63.2 µg/mL)						9
CC(=O)N1CCC[C@]12CC=CCCCC1(CCCC=CCCCOC(=O)N3CC[C@@](C(=O)N[C@@H](Cc4ccccc4Cl)C(=O)N[C@@H](Cc4csc5ccccc45)C(=O)N[C@@H](CCC(N)=O)C(N)=O)(C3)NC(=O)[C@H](CC(C)C)NC(=O)[C@H](Cc3ccccc3)NC(=O)[C@H](C)NC(=O)[C@H](C)NC(=O)[C@H](CC(=O)O)NC(=O)[C@H](CC(=O)O)NC1=O)NC(=O)[C@H](CC1CCCCC1)NC(=O)[C@H](CC(=O)O)NC2=O (stereo partly drawn) [I-1075, Ac-PL3-Asp-Cha-B5-Asp-Asp-Ala-Ala-Phe-Leu-PyrS2-2C1F-BztA-Gln-NH2]	1.971	17 (≈ 33.5 µg/mL)			567	567		
CC(=O)N1CCC[C@]12CC=CCCCC1(CCCC=CCCCOC(=O)N3CC[C@@](C(=O)N[C@@H](Cc4ccsc4)C(=O)N[C@@H](Cc4csc5ccccc45)C(=O)N[C@@H](CO)C(N)=O)(C3)NC(=O)[C@H](CCO)NC(=O)[C@H](Cc3ccccc3)NC(=O)[C@H](C)NC(=O)[C@H](C)NC(=O)[C@H](CN(CC(=O)O)CC(F)(F)F)NC(=O)[C@H](CC(=O)O)NC1=O)NC(=O)[C@H](CC(C)(C)C)NC(=O)[C@H](CC(=O)O)NC2=O (stereo partly drawn) [I-959, Ac-PL3-Asp-Npg-B5-Asp-TfeGA-Ala-Ala-Phe-Hse-PyrS2-3Thi-BztA-Ser-NH2]	−0.036	48 (≈ 94.8 µg/mL)			881	881		
CC(=O)N1CCC[C@]12CC=CCCCC1(CCCC=CCCCCCC[C@@](C)(C(=O)N[C@@H](Cc3ccccc3)C(=O)N[C@@H](Cc3csc4ccccc34)C(=O)N[C@@H](CCC(N)=O)C(N)=O)NC(=O)[C@H](CCC(N)=O)NC(=O)[C@H](Cc3ccccc3)NC(=O)[C@H](C)NC(=O)[C@H](C)NC(=O)[C@H](CCC(=O)O)NC(=O)[C@H](CC(=O)O)NC1=O)NC(=O)[C@H](CC(F)(F)F)NC(=O)[C@H](CC(=O)O)NC2=O (stereo partly drawn) [I-501, Ac-PL3-Asp-F3CA-B5-Asp-Glu-Ala-Ala-Phe-Gln-S8-Phe-BztA-Gln-NH2]	2.138	49 (≈ 93.5 µg/mL)	94	94				

Now from value to compound, other results behind:

CHI Log D (CHI Log D procedure)	Solubility (Solubility in PBS) [µM]	IC50 [1, 2] [nM]	IC50 ([1]; read-out: FP EC50) [nM]	IC50 ([1]; read-out: beta-Catenin FP IC50) [nM]	IC50 [1, 3] [nM]	IC50 ([1]; Table E2-1, read-out: beta-Catenin FP IC50) [nM]	SMILES	IC50 ([1]; read-out: FP EC50, fluorescence polarization, beta-catenin) [nM]
2.069	50 (≈ 91.1 µg/mL)	19	19				CC(=O)N1CCC[C@]12CC=CCCCC1(CCCC=CCCCCCC[C@@](C)(C(=O)N[C@@H](Cc3ccccc3)C(=O)N[C@@H](Cc3csc4ccccc34)C(=O)N[C@@H](Cc3c[nH]cn3)C(N)=O)NC(=O)[C@H](CC(N)=O)NC(=O)[C@H](Cc3ccccc3)NC(=O)[C@H](C)NC(=O)[C@H](C)NC(=O)[C@H](CC(=O)O)NC(=O)[C@H](CC(=O)O)NC1=O)NC(=O)[C@H](C)NC(=O)[C@H](CC(=O)O)NC2=O (stereo partly drawn) [I-466, Ac-PL3-Asp-Ala-B5-Asp-Asp-Ala-Ala-Phe-Asn-S8-Phe-BztA-His-NH2]	
2.681	47 (≈ 81.8 µg/mL)	119	119				CC(=O)N1CCC[C@]12CC=CCCCC1(CCCC=CCCCCCC[C@@](C)(C(=O)N[C@@H](Cc3ccccc3)C(=O)N[C@@H](Cc3csc4ccccc34)C(N)=O)NC(=O)[C@H](CC(N)=O)NC(=O)[C@H](Cc3ccccc3)NC(=O)[C@H](C)NC(=O)[C@H](C)NC(=O)[C@H](CCC(=O)O)NC(=O)[C@H](CC(=O)O)NC1=O)NC(=O)[C@H](CC(C)C)NC(=O)[C@H](CC(=O)O)NC2=O (stereo partly drawn) [I-625, Ac-PL3-Asp-Leu-B5-Asp-Glu-Ala-Ala-Phe-Asn-S8-Phe-BztA-NH2]	
2.017	44 (≈ 80.8 µg/mL)				146	146	CC(=O)N1CCC[C@]12CC=CCCCC1(CCCC=CCCCCCC[C@@](C)(C(=O)N[C@@H](Cc3ccccc3)C(=O)N[C@@H](Cc3csc4ccccc34)C(=O)N[C@@H](Cc3c[nH]cn3)C(N)=O)NC(=O)[C@H](CCC(N)=O)NC(=O)[C@H](Cc3ccccc3)NC(=O)[C@H](C)NC(=O)[C@H](C)NC(=O)[C@H](CC(=O)O)NC(=O)[C@H](CC(=O)O)NC1=O)NC(=O)[C@H](C)NC(=O)[C@H](CC(=O)O)NC2=O (stereo partly drawn) [I-360, Ac-PL3-Asp-Ala-B5-Asp-Asp-Ala-Ala-Phe-Gln-S8-Phe-BztA-His-NH2]	
2.292	41 (≈ 76.1 µg/mL)	27	27				CC[C@H](C)[C@@H]1NC(=O)[C@H](CC(=O)O)NC(=O)[C@]2(CC=CCCCC3(CCCC=CCCCCCC[C@@](C)(C(=O)N[C@@H](Cc4ccccc4)C(=O)N[C@@H](Cc4csc5ccccc45)C(=O)N[C@@H](CCC(N)=O)C(N)=O)NC(=O)[C@H](CC(N)=O)NC(=O)[C@H](Cc4ccccc4)NC(=O)[C@H](C)NC(=O)[C@H](C)NC(=O)[C@H](CC(=O)O)NC(=O)[C@H](CC(=O)O)NC3=O)NC1=O)CCCN2C(C)=O (stereo partly drawn) [I-468, Ac-PL3-Asp-Ile-B5-Asp-Asp-Ala-Ala-Phe-Asn-S8-Phe-BztA-Gln-NH2]	
